{
  "source": "PubChem BioAssay AID1259407",
  "about": "(Chemical Carcinogenesis Research Information System (CCRIS), 2018)",
  "tested_on": "CCRIS mutagenicity, Ames/micronucleus/aberration tests",
  "test": "CCRIS mutagenicity studies",
  "key": {"[1]": {"details": "Test System: AMES SALMONELLA TYPHIMURIUM, Strain/Indicator: TA100, Metabolic Activation: NONE, Method: PREINCUBATION"}, "[2]": {"details": "Test System: AMES SALMONELLA TYPHIMURIUM, Strain/Indicator: TA100, Metabolic Activation: RAT, LIVER, S-9, AROCLOR 1254, Method: STANDARD PLATE"}, "[3]": {"details": "Test System: AMES SALMONELLA TYPHIMURIUM, Strain/Indicator: TA100, Metabolic Activation: NONE, Method: STANDARD PLATE"}, "[4]": {"details": "Test System: AMES SALMONELLA TYPHIMURIUM, Strain/Indicator: TA102, Metabolic Activation: NONE, Method: PREINCUBATION"}, "[5]": {"details": "Test System: AMES SALMONELLA TYPHIMURIUM, Strain/Indicator: TA98, Metabolic Activation: NONE, Method: STANDARD PLATE"}, "[6]": {"details": "Test System: AMES SALMONELLA TYPHIMURIUM, Strain/Indicator: TA98, Metabolic Activation: RAT, LIVER, S-9, AROCLOR 1254, Method: STANDARD PLATE"}},
  "note": "The source made the active and inactive calls. The rule behind the calls is not given here.",
  "data": [
    {"compound": "c1ccc2cc3c(ccc4c5ccccc5ccc34)cc2c1", "values": [
      {"measurement": "mutagenic call", "setting": "Test System: AMES SALMONELLA TYPHIMURIUM, Strain/Indicator: TA100, Metabolic Activation: RAT, LIVER, MICROSOMES, AROCLOR 1254, Method: STANDARD PLATE", "result": "inactive; negative"},
      {"measurement": "mutagenic call", "setting": "Test System: AMES SALMONELLA TYPHIMURIUM, Strain/Indicator: TA100, Metabolic Activation: RAT, LIVER, MICROSOMES, BENZO[B]CHRYSENE, Method: STANDARD PLATE", "result": "inactive; negative"},
      {"measurement": "mutagenic call", "setting": "Test System: AMES SALMONELLA TYPHIMURIUM, Strain/Indicator: TA100, Metabolic Activation: RAT, LIVER, MICROSOMES, Method: STANDARD PLATE", "result": "inactive; negative"}
    ]},
    {"compound": "CN(C)c1ccc(N=Nc2ccccc2CO)cc1", "values": [
      {"measurement": "mutagenic call", "setting": "Test System: AMES SALMONELLA TYPHIMURIUM, Strain/Indicator: TA98, Metabolic Activation: RAT, LIVER, S-9, N-BENZYLIMIDAZOLE, Method: PREINCUBATION", "result": "active; positive"}
    ]},
    {"compound": "Cc1c2ccccc2c(CO)c2c1ccc1ccccc12", "values": [
      {"measurement": "mutagenic call", "setting": "Test System: CHINESE HAMSTER V-79, Strain/Indicator: V-79/6-THIOGUANINE, Metabolic Activation: CELL-MEDIATED, Method: STANDARD PLATE", "result": "active; positive"},
      {"measurement": "mutagenic call", "setting": "Test System: CHINESE HAMSTER V-79, Strain/Indicator: V-79/OUABAIN, Metabolic Activation: CELL-MEDIATED, Method: STANDARD PLATE", "result": "active; positive"}
    ]},
    {"compound": "COc1cccc2c1OC1(C)OOC21C", "note": "(stereo unspecified)", "values": [
      {"measurement": "mutagenic call", "setting": "[1]", "result": "active; positive"}
    ]},
    {"compound": "O=S(=O)(O)N(O)S(=O)(=O)O", "values": [
      {"measurement": "mutagenic call", "setting": "Test System: AMES SALMONELLA TYPHIMURIUM, Strain/Indicator: G46, Metabolic Activation: RAT, LIVER, S-9, AROCLOR 1254, Method: STANDARD PLATE", "result": "active; positive"},
      {"measurement": "mutagenic call", "setting": "[2]", "result": "active; positive"}
    ]},
    {"compound": "COc1cc(-c2ccc(N/N=C3\\C(=O)c4ccc(N)cc4C=C3S(=O)(=O)O)c(OC)c2)ccc1N/N=C1/C=C(S(=O)(=O)O)c2ccccc2C1=O", "values": [
      {"measurement": "mutagenic call", "setting": "Test System: AMES SALMONELLA TYPHIMURIUM, Strain/Indicator: TA98, Metabolic Activation: HAMSTER, LIVER, S-9, Method: PREINCUBATION (PRIVAL METHOD)", "result": "active; positive"}
    ]},
    {"compound": "N/C(=N\\O)c1ccc([N+](=O)[O-])o1", "values": [
      {"measurement": "mutagenic call", "setting": "[3]", "result": "active; positive"}
    ]},
    {"compound": "O=C[C@H](O)[C@@H](O)[C@H](O)CO", "values": [
      {"measurement": "mutagenic call", "setting": "Test System: AMES SALMONELLA TYPHIMURIUM, Strain/Indicator: TA97A, Metabolic Activation: NONE, Method: PREINCUBATION", "result": "inactive; negative"},
      {"measurement": "mutagenic call", "setting": "Test System: AMES SALMONELLA TYPHIMURIUM, Strain/Indicator: TA97A, Metabolic Activation: RAT, LIVER, S-9, AROCLOR 1254, Method: PREINCUBATION", "result": "inactive; negative"},
      {"measurement": "mutagenic call", "setting": "[4]", "result": "inactive; negative"},
      {"measurement": "mutagenic call", "setting": "Test System: AMES SALMONELLA TYPHIMURIUM, Strain/Indicator: TA102, Metabolic Activation: RAT, LIVER, S-9, AROCLOR 1254, Method: PREINCUBATION", "result": "inactive; negative"}
    ]},
    {"compound": "O=[N+]([O-])c1cc2c3ccccc3ccc2c2ccccc12", "values": [
      {"measurement": "mutagenic call", "setting": "Test System: AMES SALMONELLA TYPHIMURIUM, Strain/Indicator: TA98, Metabolic Activation: HAMSTER LIVER S-9, 6-NITROCHRYSENE, Method: PREINCUBATION", "result": "active; positive"},
      {"measurement": "mutagenic call", "setting": "Test System: AMES SALMONELLA TYPHIMURIUM, Strain/Indicator: TA98, Metabolic Activation: HAMSTER LIVER S-9, Method: PREINCUBATION", "result": "active; positive"},
      {"measurement": "mutagenic call", "setting": "[5]", "result": "active; positive"},
      {"measurement": "mutagenic call", "setting": "Test System: AMES SALMONELLA TYPHIMURIUM, Strain/Indicator: TA98, Metabolic Activation: RAT, LIVER, S-9, AROCLOR 1254, Method: PREINCUBATION", "result": "active; positive"},
      {"measurement": "mutagenic call", "setting": "[6]", "result": "active; positive"},
      {"measurement": "mutagenic call", "setting": "Test System: AMES SALMONELLA TYPHIMURIUM, Strain/Indicator: TA98, Metabolic Activation: RAT, LIVER, S-9, Method: PREINCUBATION", "result": "active; positive"},
      {"measurement": "mutagenic call", "setting": "Test System: AMES SALMONELLA TYPHIMURIUM, Strain/Indicator: TA100, Metabolic Activation: HAMSTER LIVER S-9, 6-NITROCHRYSENE, Method: PREINCUBATION", "result": "active; positive"},
      {"measurement": "mutagenic call", "setting": "Test System: AMES SALMONELLA TYPHIMURIUM, Strain/Indicator: TA100, Metabolic Activation: HAMSTER LIVER S-9, Method: PREINCUBATION", "result": "active; positive"},
      {"measurement": "mutagenic call", "setting": "[1]", "result": "active; positive"},
      {"measurement": "mutagenic call", "setting": "[3]", "result": "active; positive"},
      {"measurement": "mutagenic call", "setting": "Test System: AMES SALMONELLA TYPHIMURIUM, Strain/Indicator: TA100, Metabolic Activation: RAT, LIVER, S-9, AROCLOR 1254, Method: PREINCUBATION", "result": "active; positive"},
      {"measurement": "mutagenic call", "setting": "[2]", "result": "active; positive"},
      {"measurement": "mutagenic call", "setting": "Test System: AMES SALMONELLA TYPHIMURIUM, Strain/Indicator: TA100, Metabolic Activation: RAT, LIVER, S-9, Method: PREINCUBATION", "result": "active; positive"},
      {"measurement": "mutagenic call", "setting": "Test System: AMES SALMONELLA TYPHIMURIUM, Strain/Indicator: TA102, Metabolic Activation: HAMSTER LIVER S-9, 6-NITROCHRYSENE, Method: PREINCUBATION", "result": "active; positive"},
      {"measurement": "mutagenic call", "setting": "Test System: AMES SALMONELLA TYPHIMURIUM, Strain/Indicator: TA102, Metabolic Activation: HAMSTER LIVER S-9, Method: PREINCUBATION", "result": "active; positive"},
      {"measurement": "mutagenic call", "setting": "[4]", "result": "inactive; negative"},
      {"measurement": "mutagenic call", "setting": "Test System: CHINESE HAMSTER OVARY, Strain/Indicator: CHO-K1-BH4 (HGPRT)/6-THIOGUANINE, Metabolic Activation: NONE, Method: STANDARD PLATE", "result": "inactive; negative"},
      {"measurement": "mutagenic call", "setting": "Test System: CHINESE HAMSTER OVARY, Strain/Indicator: CHO-K1-BH4 (HGPRT)/6-THIOGUANINE, Metabolic Activation: RAT, LIVER, S-9, AROCLOR 1254, Method: STANDARD PLATE", "result": "active; positive"},
      {"measurement": "mutagenic call", "setting": "Test System: CHINESE HAMSTER OVARY, Strain/Indicator: CHO-UV5 (HGPRT)/6-THIOGUANINE, Metabolic Activation: NONE, Method: STANDARD PLATE", "result": "active; positive"},
      {"measurement": "mutagenic call", "setting": "Test System: CHINESE HAMSTER OVARY, Strain/Indicator: CHO-UV5 (HGPRT)/6-THIOGUANINE, Metabolic Activation: RAT, LIVER, S-9, AROCLOR 1254, Method: STANDARD PLATE", "result": "active; positive"}
    ]},
    {"compound": "C=C(C)c1ccc(C)c2ccc(C=O)c-2c1", "values": [
      {"measurement": "mutagenic call", "setting": "[5]", "result": "inactive; negative"},
      {"measurement": "mutagenic call", "setting": "[6]", "result": "active; positive"},
      {"measurement": "mutagenic call", "setting": "[3]", "result": "inactive; negative"},
      {"measurement": "mutagenic call", "setting": "[2]", "result": "active; positive"}
    ]},
    {"compound": "O=C1OC(O)C(C(Br)Br)=C1Br", "note": "(stereo unspecified)", "values": [
      {"measurement": "mutagenic call", "setting": "[5]", "result": "active; positive"},
      {"measurement": "mutagenic call", "setting": "Test System: AMES SALMONELLA TYPHIMURIUM, Strain/Indicator: TA98, Metabolic Activation: RAT LIVER S-9, AROCLOR 1254, Method: STANDARD PLATE", "result": "inactive; negative"},
      {"measurement": "mutagenic call", "setting": "[3]", "result": "active; positive"},
      {"measurement": "mutagenic call", "setting": "Test System: AMES SALMONELLA TYPHIMURIUM, Strain/Indicator: TA100, Metabolic Activation: RAT LIVER S-9, AROCLOR 1254, Method: STANDARD PLATE", "result": "inactive; negative"}
    ]},
    {"compound": "O=[Se](=O)(O)O", "values": [
      {"measurement": "mutagenic call", "setting": "Test System: AMES SALMONELLA TYPHIMURIUM, Strain/Indicator: TA1535, Metabolic Activation: NONE, Method: STANDARD PLATE", "result": "active; positive"},
      {"measurement": "mutagenic call", "setting": "Test System: AMES SALMONELLA TYPHIMURIUM, Strain/Indicator: TA1535, Metabolic Activation: NONE, Method: STANDARD PLATE (MEDIUM WITH TRIMETAPHOSPHATE IONS)", "result": "active; positive"},
      {"measurement": "mutagenic call", "setting": "Test System: UDS HUMAN FIBROBLASTS, Strain/Indicator: THY INCORP (NON-S-PHASE), Metabolic Activation: MOUSE, LIVER, S-9, Method: AUTORADIOGRAPHY", "result": "active; positive"},
      {"measurement": "mutagenic call", "setting": "Test System: UDS HUMAN FIBROBLASTS, Strain/Indicator: THY INCORP (NON-S-PHASE), Metabolic Activation: NONE, Method: AUTORADIOGRAPHY", "result": "active; positive"}
    ]},
    {"compound": "O=C(/C=C/c1ccccc1)c1ccc(O)cc1", "values": [
      {"measurement": "mutagenic call", "setting": "[5]", "result": "inactive; negative"},
      {"measurement": "mutagenic call", "setting": "[6]", "result": "inactive; negative"},
      {"measurement": "mutagenic call", "setting": "[3]", "result": "inactive; negative"},
      {"measurement": "mutagenic call", "setting": "[2]", "result": "inactive; negative"}
    ]}
  ]
}
